Experimental findings from patent publication US11523610B2, “Regulating plant growth using a diapocarotenoid” (King Abdullah University of Science and Technology, priority 2018, dated 2022) are described below.

The subject of one experiment is pDR5rev::GFP seedlings. Put plainly: Confocal microscopy of pDR5rev::GFP auxin marker line. Particulars: single compound, 20 μM anchorene, 1 μM NF. Format: in vivo, Arabidopsis. The source says:
To examine pDR5Rev::GFP fluorescence at the collet region, live seedlings were directly used for laser scanning confocal microscopy (Zeiss LSM 510 microscope) examination.
For fluorescence intensity quantification of pDR5Rev::GFP and pPIN3::PIN3-GFP marker lines, ImageJ software (rsbweb.nih.gov/ij/) was used after taking confocal microscopy photos. All calculations are background subtracted.

The test system of the next experiment is pDR5::LUC seedlings. Put plainly: Luciferase assay in pDR5::LUC auxin marker line. Format: in vivo, Arabidopsis. Particulars: 1 μM NF, 20 μM anchorene. The method, then: Luciferase activity was assayed as previously described. Briefly, 1 mL of 5 mM Potassium Luciferin (Gold Biotechnology®) dissolved in water was directly applied to pDR5:LUC seedlings grown vertically on treated half strength MS plates. The luciferin solution was allowed to dry for 5-10 minutes in the dark, at room temperature. Seedlings were then imaged using a Lumazone™ CA automated Chemiluminescence system. Seven minute exposure times were used.
A pDR5::LUC line, which marks LR prebranch sites, was used to track ANR development. […] ANR primordia initiation was observed as early as 3 dps, in anchorene treated pDR5::LUC and 158 pDR5rev::GFP seedling (FIGS. 5A-C).

Experiment [1] has as its system Arabidopsis seedlings (anchor roots after RAM excision). Put plainly: ANR formation after root apical meristem excision (ANR-RE). It is filed as in vivo. The conditions noted are these: 1 μM NF, 100 μM CPTA, 150 μM D15; RAM cut at 5 DAG, grown 3 more days. The source says: ANRs were counted in seedlings vertically grown on half strength MS (with 0.5% sucrose +1% agar, 0.5 g/L MES, pH 5.7) media 8 days post-stratification (dps) using a dissection microscope. To investigate ANR formation after root apical meristems (RAM) excision (ANR-RE), RAM of seedlings were excised using sterile scalpels at 5 dps and then grown for another 3 days prior to counting the number of emerged ANRs. RAM of seedlings were excised at 8 dps and then grown for another 3 days prior to counting the number of emerged LRs. For determining the effect of anchorene on lateral roots, the number of emerged lateral roots were counted using a dissection microscope at 8 dps. For primary root length measurements, seedlings were measured using the publicly available ImageJ software (downloaded from rsbweb.nih.gov/ij/) after taking digital photographs. For adventitious root assay, the number of emerged adventitious roots per plant were counted after 5 days of treatment on plates with or without anchorene.
ANR formation under carotenoid-deficient conditions was monitored to determine the role of endogenous carotenoids in ANR development. […] Therefore, ANR formation was monitored after RAM excision (ANR-RE) to stimulate ANR development. ANR measurements were used as an indicator of ANR formation capacity under different conditions. […] Norflurazon (NF) and 2-(4-chlorophenylthio)-triethylamine hydrochloride (CPTA), which block phytoene desaturation and lycopene cyclization, respectively were tested (FIG. 6A). The effect of D15, an inhibitor of CCDs was also investigated. Application of D15 to Arabidopsis seedlings is known to lead to an increase in carotenoid levels.

A short description of experiment [2]: LC-MS quantification of anchorene in Arabidopsis tissues. On the procedure:
About 30 mg (30-40 mg) of freeze-dried and ground Arabidopsis seedlings tissues were extracted using 1 mL of acetonitrile with anti-oxidant [0.1% butylated hydroxytoluene (BHT)] for 15 min in an ultrasonic bath (Branson® 5510EDTH, 25° C., 15 min), followed by centrifugation for 8 min at 13000 rpm at 4° C. The collected supernatant was dried using a concentrator (Labconco RapidVap® System). The extract was derivatized (SCHEME 3) with 50 μL of derivatization solution containing 5 mg/mL derivatization reagent (N^2,N^2,N^4,N^4-tetraethyl-6-hydrazineyl-1,3,5-triazine-2,4-diamine) (Chemspace) and 1% formic acid in methanol at 37° C. for 15 min. Then the sample solution was diluted to 150 μL with 1% formic acid in methanol and filtered by using 0.22 μm filter before LC-MS analysis.
The quantitative analysis of derivative anchorene were carried out on HPLC-Q-Trap MS/MS. Chromatographic separation was achieved on an Acquity UPLC CSH C18 column (50×2.1 mm; 1.7 μm; Waters) using a mobile phase consisting of water: acetonitrile (95:5, v:v, A) and pure acetonitrile (B), both containing 0.1% formic acid. A gradient was applied, starting with 10% B and increasing to 40% B over 5 min. Then 15% B was increased
within 10 min followed by an increase of 45% B over 2 min. And then 100% B was maintained for 10 min. To equilibrate the column before the next run, the mobile phase was adjusted back to 10% B in 1 min and this concentration was maintained for 8 min prior to the next sample injection. A flow rate of 0.15 mL/min and a column temperature of 40° C. were maintained throughout the run. The eluent of the column was introduced to the mass spectrometer using turbo spray ion source in positive mode. The injection volume was 10 μL. The conditions of the mass spectrometer were set as following: curtain gas: 30; ion spray voltage: 5 kV; temperature: 400° C.; ion source gas 1: 30; ion source gas 2: 40; declustering potential, 55; entrance potential: 10; collision energy: 25; collision cell exit potential: 10. […]

Experiment [3] has as its system Arabidopsis seedlings (anchor roots). In words: ANR formation under OH-Apo10′ and OH-Apo12′ treatment. Particulars: 10 μM, counted at 10 DAG. Format: in vivo. From the text: FIGS. 21A-D show a diapocarotenoid precursor (OH-Apo12′) is converted into anchorene in plants, according to one or more embodiments of the present disclosure. […] (B) is a histogram showing quantification of achorene in mock, OH-Apo10′, and OH-Apo12′ fed Arabidopsis seedlings. (C) is a histogram showing ANR emergence in mock, OH-Apo10′, and OH-Apo12′ fed seedlings. […] For B and C, two-tailed Student's t-test, **P<0.01, *** P<0.001; in B, n=4; in C data are presented as mean ±SD from 3 independent replicates; in B, 12-day-old seedlings were incubated with indicated chemicals for 6 hours and 20 μM OH-Apol10′ and OH-Apo12′ were used; and C, 10 μM OH-Apol ′ and OH-Apo12′ were used and the ANR No./plant was counted at 10 DAG. For the quantification of ANR formation under OH-Apo10′ and OH-Apo12′ treatment conditions, the sterilized Arabidopsis seeds were exposed to light for 24 hours first, and then plated to 1/2 MS plates with indicated chemicals; the plates were kept under darkness (22° C.) for another two days and then exposed to long day light conditions for another 7 days to count the ANR emergence.

Molecules are shown by their SMILES.

Regarding `CNc1cnn(-c2cccc(C(F)(F)F)c2)c(=O)c1Cl` [NF, Norflurazon], the “GFP signal at the collet / ANR primordia” value in the experiment with pDR5rev::GFP seedlings is given as “No significant reduction”. In the experiment with pDR5::LUC seedlings, the “LUC signal in the collet” value was “clear LUC signal was detected”. In addition, in experiment [1], the ANR-RE entry was “strongly reduced”. The “anchorene content of whole seedlings after NF treatment” value in experiment [2] (24 hours NF treatment, 2 μM NF) is recorded as “decreases”; in experiment [2] (continuous NF treatment), “greatly decreases”.

On to `CC(C=CC=O)=CC=CC=C(C)C=CC=C(C)C=CC1=C(C)CC(O)CC1(C)C` (centres unmarked) [OH-APO10′, reference compound], for which, in experiment [3], the “anchor roots formed compared to mock (ANR No./plant)” value is recorded as “not”.

With `CC1=C(/C=C/C(C)=C/C=C/C(C)=C/C=C/C=C(\C)C=O)C(C)(C)CC(O)C1` (stereo not drawn) [OH-APO12′, all-trans-3-OH-β12′-carotenal], in experiment [3], the “anchor roots formed compared to mock (ANR No./plant)” value is reported as “formed more anchor routes”. For the same molecule, in experiment [2] (12-day-old seedlings incubated 6 hours with 20 μM, compared to control and OH-APO10′), the “anchorene content of fed seedlings” value is given as “much more anchorene”.
